# In patent US20230049952A1, “METHODS AND COMPOUNDS FOR RESTORING MUTANT P53 FUNCTION” (PMV Pharmaceuticals, Inc., priority 2020, published 2023):
# Test system: p53 signaling pathway in MT373 tumors
# Experiment: MT373 syngeneic sarcoma model: mouse p53 signaling pathway profiling panel
# Type: in vivo
# Conditions: for Actb* mRNA (housekeeping or reference gene), Fold Increase Over Vehicle Control or Percent Reduction Compared to Vehicle Control (%) / B2m* mRNA (housekeeping or reference gene), Fold Increase Over Vehicle Control or Percent Reduction Compared to Vehicle Control (%) / Gapdh* mRNA (housekeeping or reference gene), Fold Increase Over Vehicle Control or Percent Reduction Compared to Vehicle Control (%) / Gusb* mRNA (housekeeping or reference gene), Fold Increase Over Vehicle Control or Percent Reduction Compared to Vehicle Control (%) / Hsp90ab1* mRNA (housekeeping or reference gene), Fold Increase Over Vehicle Control or Percent Reduction Compared to Vehicle Control (%) / MGDC* (housekeeping or reference gene), Fold Increase Over Vehicle Control or Percent Reduction Compared to Vehicle Control (%) / Trp63 mRNA, Fold Increase Over Vehicle Control or Percent Reduction Compared to Vehicle Control (%) / Trp73 mRNA, Fold Increase Over Vehicle Control or Percent Reduction Compared to Vehicle Control (%) / Wt1 mRNA, Fold Increase Over Vehicle Control or Percent Reduction Compared to Vehicle Control (%) / Zmat3 mRNA, Fold Increase Over Vehicle Control or Percent Reduction Compared to Vehicle Control (%): MT373 tumors
structure (smiles),measurement,setting,value
"CCn1c(C#CCNc2ccccc2)cc2cc(CNC3CCN(C)CC3)ccc21 [Compound 1, 1-Anilino-3-{1-ethyl-5-[(1-methyl-4-piperidylamino)methyl]-1H-indol-2-yl}-2-propyne]",Il6 mRNA change,"150 mg/kg BID×1, 24 h",85.31%
same,Mdm2 mRNA increase,"150 mg/kg BID×1, 24 h",5.96 fold
same,Sesn2 mRNA increase,"150 mg/kg BID×1, 24 h",2.45 fold
same,Zmat3 mRNA increase,"150 mg/kg BID×1, 24 h",6.17 fold
same,"Actb* mRNA (housekeeping or reference gene), Fold Increase Over Vehicle Control or Percent Reduction Compared to Vehicle Control (%)","75 mg/kg BIDx1, 8 h",1.60 fold or %
same,"B2m* mRNA (housekeeping or reference gene), Fold Increase Over Vehicle Control or Percent Reduction Compared to Vehicle Control (%)","75 mg/kg BIDx1, 8 h",1.16 fold or %
same,"Gapdh* mRNA (housekeeping or reference gene), Fold Increase Over Vehicle Control or Percent Reduction Compared to Vehicle Control (%)","75 mg/kg BIDx1, 8 h",11.24 fold or %
same,"Gusb* mRNA (housekeeping or reference gene), Fold Increase Over Vehicle Control or Percent Reduction Compared to Vehicle Control (%)","75 mg/kg BIDx1, 8 h",1.12 fold or %
same,"Hsp90ab1* mRNA (housekeeping or reference gene), Fold Increase Over Vehicle Control or Percent Reduction Compared to Vehicle Control (%)","75 mg/kg BIDx1, 8 h",10.06 fold or %
same,"MGDC* (housekeeping or reference gene), Fold Increase Over Vehicle Control or Percent Reduction Compared to Vehicle Control (%)","75 mg/kg BIDx1, 8 h",1.79 fold or %
same,"Trp63 mRNA, Fold Increase Over Vehicle Control or Percent Reduction Compared to Vehicle Control (%)","75 mg/kg BIDx1, 8 h",3.58 fold or %
same,"Trp73 mRNA, Fold Increase Over Vehicle Control or Percent Reduction Compared to Vehicle Control (%)","75 mg/kg BIDx1, 8 h",16.09 fold or %
same,"Wt1 mRNA, Fold Increase Over Vehicle Control or Percent Reduction Compared to Vehicle Control (%)","75 mg/kg BIDx1, 8 h",28.78 fold or %
same,"Zmat3 mRNA, Fold Increase Over Vehicle Control or Percent Reduction Compared to Vehicle Control (%)","75 mg/kg BIDx1, 8 h",6.25 fold or %
same,"Actb* mRNA (housekeeping or reference gene), Fold Increase Over Vehicle Control or Percent Reduction Compared to Vehicle Control (%)","75 mg/kg BIDx1, 24 h",1.08 fold or %
same,"B2m* mRNA (housekeeping or reference gene), Fold Increase Over Vehicle Control or Percent Reduction Compared to Vehicle Control (%)","75 mg/kg BIDx1, 24 h",1.14 fold or %
same,"Gapdh* mRNA (housekeeping or reference gene), Fold Increase Over Vehicle Control or Percent Reduction Compared to Vehicle Control (%)","75 mg/kg BIDx1, 24 h",13.68 fold or %
same,"Gusb* mRNA (housekeeping or reference gene), Fold Increase Over Vehicle Control or Percent Reduction Compared to Vehicle Control (%)","75 mg/kg BIDx1, 24 h",1.25 fold or %
same,"Hsp90ab1* mRNA (housekeeping or reference gene), Fold Increase Over Vehicle Control or Percent Reduction Compared to Vehicle Control (%)","75 mg/kg BIDx1, 24 h",17.39 fold or %
same,"MGDC* (housekeeping or reference gene), Fold Increase Over Vehicle Control or Percent Reduction Compared to Vehicle Control (%)","75 mg/kg BIDx1, 24 h",1.27 fold or %
same,"Trp63 mRNA, Fold Increase Over Vehicle Control or Percent Reduction Compared to Vehicle Control (%)","75 mg/kg BIDx1, 24 h",1.58 fold or %
same,"Trp73 mRNA, Fold Increase Over Vehicle Control or Percent Reduction Compared to Vehicle Control (%)","75 mg/kg BIDx1, 24 h",1.01 fold or %
same,"Wt1 mRNA, Fold Increase Over Vehicle Control or Percent Reduction Compared to Vehicle Control (%)","75 mg/kg BIDx1, 24 h",21.25 fold or %
same,"Zmat3 mRNA, Fold Increase Over Vehicle Control or Percent Reduction Compared to Vehicle Control (%)","75 mg/kg BIDx1, 24 h",4.14 fold
same,"Actb* mRNA (housekeeping or reference gene), Fold Increase Over Vehicle Control or Percent Reduction Compared to Vehicle Control (%)","75 mg/kg BIDx1, 48 h",1.07 fold or %
same,"B2m* mRNA (housekeeping or reference gene), Fold Increase Over Vehicle Control or Percent Reduction Compared to Vehicle Control (%)","75 mg/kg BIDx1, 48 h",1.27 fold or %
same,"Gapdh* mRNA (housekeeping or reference gene), Fold Increase Over Vehicle Control or Percent Reduction Compared to Vehicle Control (%)","75 mg/kg BIDx1, 48 h",34.54 fold or %
same,"Gusb* mRNA (housekeeping or reference gene), Fold Increase Over Vehicle Control or Percent Reduction Compared to Vehicle Control (%)","75 mg/kg BIDx1, 48 h",1.31 fold or %
same,"Hsp90ab1* mRNA (housekeeping or reference gene), Fold Increase Over Vehicle Control or Percent Reduction Compared to Vehicle Control (%)","75 mg/kg BIDx1, 48 h",12.45 fold or %
same,"MGDC* (housekeeping or reference gene), Fold Increase Over Vehicle Control or Percent Reduction Compared to Vehicle Control (%)","75 mg/kg BIDx1, 48 h",1.78 fold or %
same,"Trp63 mRNA, Fold Increase Over Vehicle Control or Percent Reduction Compared to Vehicle Control (%)","75 mg/kg BIDx1, 48 h",2.65 fold or %
same,"Trp73 mRNA, Fold Increase Over Vehicle Control or Percent Reduction Compared to Vehicle Control (%)","75 mg/kg BIDx1, 48 h",3.40 fold or %
same,"Wt1 mRNA, Fold Increase Over Vehicle Control or Percent Reduction Compared to Vehicle Control (%)","75 mg/kg BIDx1, 48 h",21.51 fold or %
same,"Zmat3 mRNA, Fold Increase Over Vehicle Control or Percent Reduction Compared to Vehicle Control (%)","75 mg/kg BIDx1, 48 h",1.02 fold or %
same,"Actb* mRNA (housekeeping or reference gene), Fold Increase Over Vehicle Control or Percent Reduction Compared to Vehicle Control (%)","75 mg/kg BIDx1, 72 h",1.06 fold or %
same,"B2m* mRNA (housekeeping or reference gene), Fold Increase Over Vehicle Control or Percent Reduction Compared to Vehicle Control (%)","75 mg/kg BIDx1, 72 h",1.11 fold or %
same,"Gapdh* mRNA (housekeeping or reference gene), Fold Increase Over Vehicle Control or Percent Reduction Compared to Vehicle Control (%)","75 mg/kg BIDx1, 72 h",14.41 fold or %
same,"Gusb* mRNA (housekeeping or reference gene), Fold Increase Over Vehicle Control or Percent Reduction Compared to Vehicle Control (%)","75 mg/kg BIDx1, 72 h",1.11 fold or %
same,"Hsp90ab1* mRNA (housekeeping or reference gene), Fold Increase Over Vehicle Control or Percent Reduction Compared to Vehicle Control (%)","75 mg/kg BIDx1, 72 h",7.83 fold or %
same,"MGDC* (housekeeping or reference gene), Fold Increase Over Vehicle Control or Percent Reduction Compared to Vehicle Control (%)","75 mg/kg BIDx1, 72 h",1.36 fold or %
same,"Trp63 mRNA, Fold Increase Over Vehicle Control or Percent Reduction Compared to Vehicle Control (%)","75 mg/kg BIDx1, 72 h",1.62 fold or %
same,"Trp73 mRNA, Fold Increase Over Vehicle Control or Percent Reduction Compared to Vehicle Control (%)","75 mg/kg BIDx1, 72 h",1.00 fold or %
